Assay results taken from ChEMBL document CHEMBL3132829, “Optimization of triazole-based TGR5 agonists towards orally available agents” (Medchemcomm, 2013).

Legend:
Format in all cases: ADME, organism-based, Canis lupus familiaris
[1] = Cmax in beagle dog at 1 mg/kg, iv and 3 mg/kg, po by LC-MS/MS analysis; details: in vivo
[2] = Volume of distribution at steady state in beagle dog at 1 mg/kg, iv and 3 mg/kg, po by LC-MS/MS analysis; details: in vivo, read-out: Vdss
[3] = Tmax in beagle dog at 1 mg/kg, iv and 3 mg/kg, po by LC-MS/MS analysis; details: in vivo
[4] = Half life in beagle dog at 1 mg/kg, iv and 3 mg/kg, po by LC-MS/MS analysis; details: in vivo
[5] = Oral bioavailability in beagle dog at 3 mg/kg by LC-MS/MS analysis; details: in vivo

Cmax [1]: 510 nM | Vd [2]: 4.6 L/kg | Tmax [3]: 0.25 h | half-life [4]: 4.7 h | bioavailability [5]: 17%
Compound: COc1cccc(-n2nnc(C3CC3)c2C(=O)N(C)c2ccc(C#N)cc2)c1
